Results taken from patent US20100331348A1, “TROPANE DERIVATIVES USEFUL AS PESTICIDES” (SYNGENTA CROP PROTECTION, INC., priority 2007, published 2010).
Like-named read-outs stand apart in the source and are kept apart here.

What was measured:
[1] = test system: Plutella xylostella; assay: Plutella xylostella (Diamond back moth) artificial diet test; settings: 120 h, read-out: control of Plutella xylostella
[2] = test system: Puccinia recondita f.sp. tritici; assay: Puccinia recondita f.sp. tritici (wheat brown rust) leaf disk assay; assay type: in vivo; settings: foliar, 216 h, preventive, nine days after inoculation, read-out: control of fungal infection, Puccinia recondita f.sp. tritici
[3] = test system: Heliothis virescens; assay: Heliothis virescens (Tobacco budworm) egg test on artificial diet; settings: 96 h, read-out: control of Heliothis virescens
[4] = test system: Septoria tritici; assay: Septoria tritici (leaf blotch) growth inhibition in nutrient broth; assay type: cell-based; settings: Zymoseptoria tritici, 72 hrs, read-out: control of fungal infection, Septoria tritici
[5] = test system: Pythium ultimum; assay: Pythium ultimum (Damping off) growth inhibition in potato dextrose broth; assay type: cell-based; settings: Globisporangium ultimum, 48 hours, read-out: control of fungal infection, Pythium ultimum
[6] = test system: Tetranychus urticae; settings: foliar, 192 h, read-out: control of Tetranychus urticae
[7] = test system: Pyricularia oryzae; assay: whole plant or invertebrate; assay type: in vivo; settings: foliar, 96 h
[8] = test system: Aedes aegypti; assay: Aedes aegypti (Yellow fever mosquito) larvae test; assay type: in vivo; settings: 48 h
[9] = test system: Plasmopara viticola; assay: Plasmopara viticola (downy mildew of grapevine) leaf disk assay; assay type: in vivo; settings: foliar, 168 h, preventive, seven days after inoculation, read-out: control of fungal infection, Plasmopara viticola
[10] = test system: Spodoptera littoralis; assay: Spodoptera littoralis (Egyptian cotton leafworm) cotton leaf disc test; settings: in Gossypium hirsutum, foliar, 72 h, read-out: control of Spodoptera littoralis
[11] = test system: Phytophthora infestans; assay: whole plant or invertebrate; assay type: in vivo; settings: foliar, 96 h, read-out: control of fungal infection, Phytophthora infestans
[12] = test system: Erysiphe graminis f.sp. tritici; assay: Erysiphe graminis f.sp. tritici (wheat powdery mildew) leaf disk assay; assay type: in vivo; settings: Blumeria graminis, foliar, 96 h, preventive, four days after inoculation, read-out: control of fungal infection, Erysiphe graminis fsp. tritici
[13] = test system: Myzus persicae; assay: Myzus persicae (Green peach aphid) sunflower leaf disc test; settings: foliar, 144 h, read-out: control of Myzus persicae
[14] = read-out: control of fungal infection, Pyricularia oryzae (at least 60% list)
[15] = read-out: control of fungal infection, Pyricularia oryzae (at least 80% list)

SMILES	pest or weed control at 200 ppm [1]	pest or weed control at 200 ppm [2]	pest or weed control at 200 ppm [3]	inhibition of growth at 200 ppm [4]	inhibition of growth at 200 ppm [5]	pest or weed control at 200 ppm [6]	pest or weed control at 200 ppm [7, 14]	pest or weed control at 200 ppm [7, 15]	pest or weed control at 2 ppm [8]	pest or weed control at 200 ppm [9]	pest or weed control at 200 ppm [10]	pest or weed control at 200 ppm [11]	pest or weed control at 200 ppm [12]	pest or weed control at 200 ppm [13]	melting point
Fc1cc(C(F)(F)F)ccc1CON=C1CC2CCC(C1)N2c1ncnc2ccccc12 [Example 5.135]	≥ 80%	≥ 80%	≥ 80%	≥ 60%	≥ 60%	≥ 80%	≥ 60%	≥ 80%	≥ 80%						
Clc1ccc(CC2CC3CCC(C2)N3c2ncnc3sccc23)cc1 (centres unmarked) [Example 7.10]		≥ 80%	≥ 80%	≥ 60%			≥ 60%	≥ 80%	≥ 80%	≥ 80%					
CCc1ncnc(N2C3CCC2CC(Cc2ccccc2)C3)c1Cl (centres unmarked) [Example 7.23]	≥ 80%	≥ 80%		≥ 60%					≥ 80%						
CCc1ncnc(N2C3CCC2CC(O)(CC#Cc2ccccc2)C3)c1Cl (centres unmarked) [Example 7.35]		≥ 80%		≥ 60%			≥ 60%			≥ 80%					
CCc1ncnc(N2C3CCC2CC(=Cc2ccc(OC)cc2)C3)c1Cl [Example 3.9]	≥ 80%		≥ 80%			≥ 80%	≥ 60%	≥ 80%	≥ 80%		≥ 80%				
C(=C1CC2CCC(C1)N2c1ncnc2sccc12)c1ccccc1 [Example 3.27]	≥ 80%	≥ 80%	≥ 80%			≥ 80%	≥ 60%	≥ 80%	≥ 80%	≥ 80%	≥ 80%	≥ 80%			
CCCCCC(=O)C=C1CC2CCC(C1)N2c1ncnc2sccc12 [Example 3.35]	≥ 80%	≥ 80%		≥ 60%			≥ 60%	≥ 80%	≥ 80%	≥ 80%					
COC(=O)CC1CC2CCC(C1)N2c1ncnc2sccc12 (centres unmarked) [Example 7.9]	≥ 80%			≥ 60%		≥ 80%			≥ 80%						
CCc1ncnc(N2C3CCC2CC(=NOCc2ccc(Cl)cc2)C3)c1Cl [Example 5.21]	≥ 80%	≥ 80%	≥ 80%					≥ 80%	≥ 80%			≥ 80%	≥ 80%	≥ 80%	
Clc1ccc(C=C2CC3CCC(C2)N3c2ncnc3sccc23)cc1 [Example 3.20]	≥ 80%	≥ 80%	≥ 80%			≥ 80%	≥ 60%	≥ 80%	≥ 80%	≥ 80%	≥ 80%				
FC(F)(F)c1ccc(CON=C2CC3CCC(C2)N3c2ncnc3ccccc23)cc1 [Example 5.128]	≥ 80%	≥ 80%	≥ 80%	≥ 60%	≥ 60%	≥ 80%	≥ 60%	≥ 80%	≥ 80%						
Fc1ccccc1CON=C1CC2CCC(C1)N2c1ncnc2sccc12 [Example 5.211]	≥ 80%	≥ 80%	≥ 80%						≥ 80%		≥ 80%	≥ 80%	≥ 80%		
CCOC(=O)C=C1CC2CCC(C1)N2c1ncnc(CC)c1Cl [Example 3.8]		≥ 80%	≥ 80%	≥ 60%					≥ 80%						
Fc1ccc(F)c(CON=C2CC3CCC(C2)N3c2ncnc3sccc23)c1 [Example 5.218]	≥ 80%	≥ 80%			≥ 60%	≥ 80%	≥ 60%	≥ 80%	≥ 80%				≥ 80%	≥ 80%	
CCc1ncnc(N2C3CCC2CC(=Cc2ccc(C)cc2)C3)c1Cl [Example 3.7]	≥ 80%	≥ 80%	≥ 80%			≥ 80%			≥ 80%		≥ 80%				
c1ccc(CC2CC3CCC(C2)N3c2ncnc3sccc23)cc1 (centres unmarked) [Example 7.6]		≥ 80%	≥ 80%	≥ 60%			≥ 60%	≥ 80%	≥ 80%	≥ 80%					
Fc1ccc(F)c(CON=C2CC3CCC(C2)N3c2ncnc3ccccc23)c1F [Example 5.134]	≥ 80%	≥ 80%	≥ 80%	≥ 60%	≥ 60%		≥ 60%		≥ 80%						
Fc1ccc(CON=C2CC3CCC(C2)N3c2ncnc3sccc23)c(F)c1F [Example 5.222]	≥ 80%	≥ 80%			≥ 60%		≥ 60%		≥ 80%	≥ 80%			≥ 80%	≥ 80%	
CCc1ncnc(N2C3CCC2CC(CC(=O)OC)C3)c1Cl (centres unmarked) [Example 7.36]	≥ 80%		≥ 80%	≥ 60%		≥ 80%			≥ 80%						
CCc1ncnc(N2[C@@H]3CC[C@H]2CC(O)(COc2ccc(C)cc2)C3)c1Cl (some centres unmarked) [Example 1.159]		≥ 80%		≥ 60%						≥ 80%					
CCc1ncnc(N2C3CCC2CC(=CCOc2cc(C)nc(C)n2)C3)c1Cl [Example 3.15]		≥ 80%	≥ 80%	≥ 60%				≥ 80%	≥ 80%						
CCc1ncnc(N2[C@@H]3CC[C@H]2CC(O/N=C(\C)c2cccnc2)C3)c1Cl (some centres unmarked) [Example 2.97]				≥ 60%		≥ 80%	≥ 60%			≥ 80%					
FC(F)(F)c1cccc(OC2C[C@H]3CC[C@@H](C2)N3c2ncnc3ccsc23)n1 (some centres unmarked) [Example 2.78]		≥ 80%		≥ 60%			≥ 60%	≥ 80%							109 °C
Cc1ccc(OCC=C2CC3CCC(C2)N3c2ncnc3sccc23)cn1 [Example 3.29]	≥ 80%	≥ 80%	≥ 80%					≥ 80%	≥ 80%	≥ 80%		≥ 80%		≥ 80%	
Fc1cccc(F)c1CON=C1CC2CCC(C1)N2c1ncnc2sccc12 [Example 5.215]	≥ 80%	≥ 80%				≥ 80%	≥ 60%	≥ 80%	≥ 80%	≥ 80%	≥ 80%		≥ 80%	≥ 80%	
Cc1csc2c(N3[C@@H]4CC[C@H]3CC(Oc3cccc(C(F)(F)F)n3)C4)ncnc12 (some centres unmarked) [Example 2.82]				≥ 60%			≥ 60%						≥ 80%		123 °C
